Test results published in patent publication US10662124B2, “Fertilizer composition containing oxidized glutathione and fertilizer element for foliar application” (Kaneka Corporation, priority 2015, dated 2020).

What was measured:
[1] = test system: Lettuce seedlings (Green leaf lettuce, Sakata Seed Corporation); assay: Example 6: spray-application to leaf surface with different amounts of fertilizer elements, lettuce seedling-raising test; assay type: in vivo
Experimental: (§1) Lettuce seedlings (Green leaf lettuce, Sakata Seed Corporation) were raised under the conditions described below.
(§2) Place: Inside a plant incubator
(§3) Soil: Black soil (40 ml/pot)
(§4) Light: 115 μmol m^−2 s^−1 (10,000 lux) (light period: 16 hours; dark period: 8 hours)
Number of tested plants (n): 4
(§5) Water supply: During the seedling-raising test, water was adequately supplied so as to prevent the soil in the pot from being dehydrated (about 20 ml/week).
Test groups: […] test groups: i.e., Control group, Comparative group 7, Formulation group 1 (15 parts of the fertilizer), Formulation group 2 (30 parts of the fertilizer), Formulation group 3 (100 parts of the fertilizer), Formulation group 4 (150 parts of the fertilizer), Formulation group 5 (200 parts of the fertilizer), and Formulation group 6 (400 parts of the fertilizer), were provided as shown in Table 11 below.
(§6) Control group was tested through application of fertilizer elements (nitrogen, phosphorus, and potassium) only to soil without the application of GSSG.
(§7) In the case of Control group, soil was prepared to contain nitrogen, phosphorus, and potassium in an amount of 40 mg each (120 mg in total per pot) in terms of N, P2O5, and K2O, respectively, at the time of sowing. Specifically, 40 ml of soil, 156 mg of ammonium sulfate, 66 mg of monobasic ammonium phosphate, and 80 mg of potassium sulfate were weighed and introduced into a container, these elements were mixed to prepare a homogeneous composition, and the resultant was introduced into a pot. Ammonium sulfate used in the experiment contained 21% of nitrogen (in terms of N), monobasic ammonium phosphate contained 11% of nitrogen (in terms of N) and 61% of phosphorus (in terms of P2O5), and potassium sulfate contained 50% of potassium (in terms of K2O) (based on the indication of each product).
(§8) Lettuce seeds were sowed in soil in the pot and the seedling-raising test was then initiated.
Comparative group 7 was tested through application of GSSG to the leaf surface and fertilizer elements (nitrogen, phosphorus, and potassium) to soil. […]

[2] = test system: Lettuce seedlings (Green leaf lettuce, Sakata Seed Corporation); assay: Example 2: effects of application on leaf surface, lettuce seedling-raising test; assay type: in vivo; details: for Weight (fresh weight, average, of the terrestrial parts): 2 weeks, n=3; for Growth rate (fresh weight of terrestrial parts relative to Control group): Control group = 100
Experimental: as §1, §2, §3, §4
Number of tested plants (n): 3
as §5
Test groups: Four test groups: i.e., Control group, Comparative group 1, Comparative group 2, and Invention group, were provided as shown in Table 3 below.
as §6
as §7, with “to comprise” for “to contain”, “these components” for “these elements”, “N), and” for “N),”
as §8
Comparative group 1 was tested through application of GSSG and a fertilizer elements (nitrogen, phosphorus, and potassium) only to soil.
The method for application of fertilizer elements to soil and the amount of application are as described above with reference to Control group.
GSSG was applied to soil with the addition of an aqueous solution of GSSG to soil. At the outset, an aqueous solution of GSSG (in terms of free GSSG, the same applies hereinbelow) dissolved at 300 ppm in water was prepared. Subsequently, the aqueous solution of GSSG was applied in an amount of 4 ml each (12 ml in total) three separate times at intervals of 3 days from 6 days after seedling raising was initiated. Thus, 3.6 mg of GSSG (in terms of free GSSG) was applied during the test period per pot. […]
In Invention group, soil was prepared to contain the fertilizer elements (i.e., 36 mg each of nitrogen, phosphorus, and potassium in terms of N, P2O5, and K2O, respectively, 108 mg in total per pot) at the time of sowing. Specifically, 40 ml of soil and, as fertilizer elements, 140.4 mg of ammonium sulfate, 59.4 mg of ammonium phosphate, and 72 mg of potassium sulfate, were weighed and introduced into a container, these components were mixed to prepare a homogeneous composition, and the resultant was then introduced into a pot.
GSSG was spray-applied to the leaf surface as described below. The finely-powdered water-soluble preparation (1) of the formulation A as described in Example 1 (33.8 mg) was dissolved in 12 ml of water to prepare an aqueous solution containing GSSG and fertilizer elements. […]

Substance: Oxidized glutathione [GSSG]
- Weight (fresh weight, average, of the terrestrial parts) ([1]; 2 weeks, n=4, 3.5 mg GSSG with 0-400 parts of fertilizer per 100 parts GSSG sprayed to leaf surface three times, 12 ml in total per pot, rest of fertilizer to soil): 88 mg
- Plant growth promotion versus Control group ([1]; Comparative group 7 compared with Control group): plant growth is promoted
- Growth rate (fresh weight of terrestrial part relative to Control group) ([1]; Control group = 100, 3.5 mg GSSG with 0-400 parts of fertilizer per 100 parts GSSG sprayed to leaf surface): 131%
- Plant growth promotion versus Control group ([2]; Comparative group 1 (GSSG to soil) compared with Control group): plant growth is promoted
- Weight (fresh weight, average, of the terrestrial parts) ([2]; GSSG applied to soil, 3.6 mg per pot in three applications, fertilizer elements to soil): 90 mg
- Growth rate (fresh weight of terrestrial parts relative to Control group) ([2]; GSSG applied to soil, 3.6 mg per pot, fertilizer elements to soil): 130%
- Growth rate (fresh weight of terrestrial parts relative to Control group) ([2]; sprayed to the leaf surface three times, 12 ml in total per pot (3.5-3.6 mg GSSG)): 149%
- Weight (fresh weight, average, of the terrestrial parts) ([2]; sprayed to the leaf surface three times, 12 ml in total per pot (3.5-3.6 mg GSSG), remaining fertilizer elements to soil): 103 mg
